Laboratory results taken from article PMC11579209, “Population pharmacokinetics and exposure–response relationships of maribavir in transplant recipients with cytomegalovirus infection” (Journal of Pharmacokinetics and Pharmacodynamics, 2024).

System: CMV
Assay: Exposure–response analysis of efficacy, primary endpoint: confirmed CMV viremia clearance at week 8 (SOLSTICE)
Type: in vivo, human
Conditions: for Probability of being responder, primary endpoint: AUCss 200 µg∙h/mL
Procedure: The exposure–response analyses for maribavir were based on data collected from transplant recipients with CMV infections that were refractory to treatment with ganciclovir, valganciclovir, foscarnet, or cidofovir in the phase 3 SOLSTICE study (ClinicalTrials.gov: NCT02931539). SOLSTICE was a multicenter, open-label, active-controlled study in which patients were randomized 2:1 to receive maribavir 400 mg BID or IAT for 8 weeks, with 12 weeks of follow-up. The primary endpoint was confirmed CMV clearance at the end of week 8, and the key secondary endpoint was achievement of CMV clearance and symptom control at the end of week 8, maintained through week 16. TE CMV mutation conferring resistance to maribavir was assessed as an exploratory endpoint. Full details of the SOLSTICE study have been published previously.
Posterior Bayes parameters of the final PopPK model were used to derive rich concentration–time profiles for maribavir. Actual dosing history and factors affecting the PK of maribavir (i.e., body weight and time-varying presence of strong CYP3A4 inhibitors or strong CYP3A4 inducers) were considered in the predictions.
Data set preparation, exploration, visualization of the data and exposure-response analyses were performed using R® (version 4.0.5 for efficacy and resistance analyses; version 4.0.2 for safety analysis) with comprehensive R® archive network (CRAN) and Certara Strategic Consulting (CSC) package. Firth correction on logistic regression was done based on library “logistf”. Logistic regressions with log-linear exposure effect or Emax exposure effect were performed using NONMEM Version VII (version 7.4).
Maribavir exposure parameters (AUCss, Cmax.ss, and Ctrough.ss) were combined with the primary and key secondary efficacy endpoints, and with TE CMV mutations conferring resistance to maribavir from the SOLSTICE study. The following covariates were included in the dataset to identify potential influencing factors: transplant type (HCT, SOT); CMV DNA level (high, intermediate, low) at baseline; symptom status (symptomatic or asymptomatic) at baseline; CMV resistant at baseline (yes, no); donor (D) and recipient (R) CMV serostatus (D+/R−, D+/R+, or D−/R+, D−/R−); antilymphocyte use (yes, no); immune function status as measured by total white blood cells from hematology panel at baseline; CMV-specific CD4 + CD69 + and CD8 + CD69 + T cells from immune function assay as continuous variables at baseline; enrolling region (North America, Europe, Asia Pacific); prior use of CMV prophylaxis (yes, no); age (as a continuous parameter) and age group (12 to < 18 years; 18 to < 45 years; 45 to < 65 years; ≥65 years); sex (male, female); race and ethnicity; TE CMV maribavir-resistant mutations (yes, no); and temporal identification of maribavir resistance (no, on maribavir treatment, post-maribavir treatment).
The exposure–response analyses were performed using a logistic regression model whereby a response can be defined as 0 (non-responder) or 1 (responder). Logistic regression analyses were performed to explore potential associations with maribavir exposure and the probability of response. The logistic regression model had the following form, assuming that maribavir exposure is included in the model:1 [drawing 1]
Pi is the probability of the event in the ith patient and α is the baseline Ln (odds) of the event. The model assumes a linear exposure effect on logit scale, with the parameter α representing the intercept, while β1 represents the slope linking the exposure parameter (X1) of maribavir (AUCss, Cmax.ss, and Ctrough.ss) to the response. The statistical significance of α and β1 was tested in the logistic regression models with a p value of < 0.05, and 95% CIs were provided for each parameter. The odds ratio (OR) for β1 was derived for a specific unit increment of the PK parameter. […]

[1] = primary endpoint, reference < 0.5%

CC(C)Nc1nc2cc(Cl)c(Cl)cc2n1[C@H]1O[C@@H](CO)[C@H](O)[C@@H]1O [maribavir]
Observed proportion of responders, primary endpoint (1st quartile of AUCss (range 72.2–170)): 59% | Observed proportion of responders, primary endpoint (2nd quartile of AUCss (range 170–238)): 72% | Observed proportion of responders, primary endpoint (3rd quartile of AUCss (range 238–354)): 59% | Observed proportion of responders, primary endpoint (4th quartile of AUCss (range 354–802)): 38% | Probability of being responder, primary endpoint (CD8 + CD69 + cell count ≥ 2%, no TE mutation): 90.0% | Probability of being responder, primary endpoint (developed TE CMV maribavir-resistant mutation, CD8 + CD69 + < 0.5%): 1.3% | Relationship between maribavir exposure and probability of CMV viremia clearance at week 8 (excluding 60 patients with TE CMV mutation conferring resistance, n = 171, p = 0.0709): no statistical exposure–efficacy relationship | Patients meeting primary endpoint of confirmed CMV viremia clearance at week 8 (exposure–response population n = 231, 400 mg BID, 131 patients): 57% | Relationship between maribavir exposure (AUCss) and probability of CMV viremia clearance at week 8 (n = 231, p = 0.008): negative relationship | Probability of being responder, primary endpoint (no TE CMV maribavir-resistant mutation, CD8 + CD69 + < 0.5%): 74.2% | OR (95% CI): treatment-emergent maribavir resistance on maribavir treatment (primary endpoint): 0.00457 (3.59 × 10^–5, 0.0333) | Non-responders among patients with TE maribavir-resistant CMV mutations (primary endpoint, week 8): 81% | Logistic regression Estimate (SE): baseline CD8+CD69+ cell count ≥2% [1]: 1.19 (0.630) | OR (95% CI): baseline CD8+CD69+ cell count not reported [1]: 0.730 (0.328, 1.66) | OR (95% CI): baseline CD8+CD69+ cell count ≥0.5% to <2% [1]: 0.739 (0.289, 1.98) | OR (95% CI): baseline CD8+CD69+ cell count ≥2% [1]: 3.29 (1.07, 13.4)
